Test results from ChEMBL document CHEMBL1153802, “Human plasma-mediated hypoxic activation of indolequinone-based naloxone pro-drugs” (Bioorg Med Chem Lett, 2009).

System: Plasma
Assay: Prodrug stability in human plasma assessed as […] release under normoxic condition after 24 hrs by HPLC analysis
Format: ADME, cell-free

Q: With `C=CCN1CC[C@]23c4c5ccc(OC(=O)N(C)CCN(C)C(=O)OCc6c7c(n(C(=O)NCCOCCOCCNC(=O)OC(C)(C)C)c6C)C(=O)C=C(OC)C7=O)c4O[C@H]2C(=O)CC[C@@]3(O)[C@H]1C5` as the molecule, how does the Stability read?
A: Unstable
